In patent US5981555A, “Compositions, kits and methods for administration of antilipemic drugs” (Lipoprotein Technologies, Inc., priority 1997, dated 1999):
Values joined by “and” are separate entries in the source; they are usually repeats but may differ in a detail not shown here. Equal entries are not always repeated. Where two headings read alike, the source gives them in different places.

Legend:
[1] = tested on: inflammation; settings: cited from earlier work
[2] = tested on: niacin-induced cutaneous reactions; settings: cited from earlier work
[3] = tested on: human macrophage cell line THP-1; assay: PG release from THP-1 cells in vitro (Examples 3 and 6); type: cell-based; settings: for IC50: Homo sapiens
Source text: Indomethacin was used in place of aspirin to inhibit PG production in THP-1 cells in vitro as in Example 3.

[4] = tested on: flushing induced by nicotinic acid; assay: Rating of flushing by investigator (Example 8); type: in vivo, human; settings: number of subjects; n = 14; p < 0.05 (Wilcoxon)
Method: (§1) Fourteen healthy male subjects completed the study. After randomization, subjects were given a placebo or 81 mg of aspirin bid for three days. The study was double-blind.
(§2) Room temperature and humidity were constant during the trial.
(§3) Flushing was measured in three ways: (1) quantitatively using laser Doppler, (2) subjectively via questionnaire, and (3) by measuring a biochemical marker of flushing, a stable metabolite of prostaglandin D2. Complete pharmacokinetic parameters in timed blood samples after oral administration were also measured in plasma and urine. Flushing, as measured by continuous and simultaneous recording of cutaneous blood flow on each side of the neck using laser Doppler techniques (Moor Instruments), provides an arbitrary representation of cutaneous blood flow defined as FLUX. Flux is expressed in arbitrary units (AU) from baseline (FLUXpeak-FLUXbaseline; see FIG. 11B). Duration of flush is the time in minutes from the beginning to the end of Flux shift in the DRTSOFT plot.

[5] = tested on: PGF2 release; assay: PG release following topical nicotinic acid with or without aspirin pretreatment (FIG. 3); type: in vivo, human; settings: aspirin pretreatment (40 mg) (FIG. 3)
Method: (§4) Two weeks later, the same subjects were administered 40 of mg aspirin for each of four days. […] Urinary excretion of PGD-M was much lower (FIG. 2), confirming the suppressive activity of aspirin on PGD2 release. Release of PGF2 after aspirin pretreatment (40 mg) was approximately 10% of baseline (FIG. 3).

[6] = tested on: platelet aggregation; settings: cited from earlier work
[7] = tested on: prostaglandin synthetase (cyclooxygenase); settings: Flower, Pharmacol. Rev. 26:33 (1974); cited from earlier work
[8] = tested on: nicotinic acid-induced flush; settings: pretreatment at 4.5 and 0.5 hr; indomethacin 25 or 50 mg/kg; aspirin 50, 100, or 200 mg/kg; cited from earlier work
[9] = tested on: flushing induced by nicotinic acid; type: in vivo, human
Method: Two weeks later, the same subjects were administered 40 of mg aspirin for each of four days.

[10] = tested on: cutaneous flush induced by nicotinic acid; settings: 975 mg total: 650 mg at 1 hr and 325 mg at 0.5 hr prior to nicotinic acid; cited from earlier work
[11] = tested on: flushing induced by niacin; assay: Niacin flushing after sustained release aspirin pretreatment (Example 7); type: in vivo, human
[12] = tested on: flushing induced by nicotinic acid; assay: Niacin flushing after bid aspirin pretreatment (Example 2); type: in vivo, human
Method: Three subjects were administered 40 mg of aspirin twice daily (i.e., bid) in the morning and evening for three days.

[13] = tested on: PGD-M, the major urinary metabolite of PGD2; assay: Urinary excretion of PGD-M after nicotinic acid (Example 1, FIGS. 1, 2); type: in vivo, human
Method: as §4

[14] = tested on: flushing induced by nicotinic acid; assay: Rating of flushing by subject (Example 8); type: in vivo, human; settings: number of subjects; n = 14; p < 0.05 (Wilcoxon)
Method: as §1, §2, §3

[15] = tested on: flushing induced by nicotinic acid; assay: Cutaneous blood flow (FLUX) by laser Doppler, flushing severity and duration (Example 8); type: in vivo, human; settings: mean ± S.D., n = 14
Method: as §1, §2, §3

[16] = tested on: flushing induced by nicotinic acid; assay: Local skin temperature change (Example 8); type: in vivo, human; settings: mean ± S.D.; n = 14; p = 0.016 (paired t test)
Method: as §1, §2

[17] = tested on: PG production in other cell types; settings: cited from earlier work
[18] = tested on: prostaglandin F2, a metabolite of D; settings: cited from earlier work
[19] = tested on: human circulating monocytes; settings: FIG. 4
[20] = within days after initiating therapy; cited from earlier work
[21] = tested on: eicosanoid metabolites in urine; settings: oral administration (FIG. 8)
Source text: (§5) Langerhans cells, the macrophages of skin, may differ from other macrophages in releasing lesser amounts of eicosanoids other than PGD2.

[22] = tested on: release of eicosanoids from skin; settings: topical niacin (FIG. 7)
Source text: as §5

[23] = Physician's Desk Reference, 51st ed.
[24] = 325 mg aspirin 30 minutes prior to niacin
[25] = initial testing, out of 306 patients, over 33 months

For O=C(O)Cc1ccccc1Nc1c(Cl)cccc1Cl [Diclofenac], the “Minimum Anti-inflammatory Dosage” value ([1]; Goodman and Gilman, 9th ed.) is given as 100 mg.

In the case of CCc1cccc2c3c([nH]c12)C(CC)(CC(=O)O)OCC3 (stereo not shown) [Etodolac], the “Minimum Anti-inflammatory Dosage” value ([1]; Goodman and Gilman, 9th ed.) is listed as 200 mg.

For CC(C(=O)O)c1cccc(Oc2ccccc2)c1 (stereo not shown) [Fenoprofen], the “Minimum Anti-inflammatory Dosage” value ([1]; Goodman and Gilman, 9th ed.) is given as 300 mg.

For CC(C(=O)O)c1ccc(-c2ccccc2)c(F)c1 (stereo not shown) [Flurbiprofen], the “Minimum Anti-inflammatory Dosage” value ([1]; Goodman and Gilman, 9th ed.) is given as 50 mg.

For CC(C(=O)O)c1cccc(C(=O)c2ccccc2)c1 (stereo not shown) [Ketoprofen], the “Minimum Anti-inflammatory Dosage” value ([1]; Goodman and Gilman, 9th ed.) is given as 150 mg.

For O=C(c1ccccc1)c1ccc2n1CCC2C(=O)O (stereo not shown) [Ketorolac], the “Minimum Anti-inflammatory Dosage” value ([1]; Goodman and Gilman, 9th ed.) is listed as 5 mg.

For COc1ccc2cc(CCC(C)=O)ccc2c1 [Nabumetone], the “Minimum Anti-inflammatory Dosage” value [1, 23] is listed as 500 mg.

In the case of O=C(O)CCc1nc(-c2ccccc2)c(-c2ccccc2)o1 [Oxaprozin], the “Minimum Anti-inflammatory Dosage” value ([1]; Goodman and Gilman, 9th ed.) is listed as 600 mg.

For CN1C(C(=O)Nc2ccccn2)=C(O)c2ccccc2S1(=O)=O [Piroxicam], the “Minimum Anti-inflammatory Dosage” value [1, 23] is given as 10 mg.

In the case of CC1=C(CC(=O)O)c2cc(F)ccc2/C1=C\c1ccc([S+](C)[O-])cc1 (stereo not shown) [Sulindac], the “Minimum Anti-inflammatory Dosage” value ([1]; Goodman and Gilman, 9th ed.) is listed as 150 mg.

In the case of Cc1ccc(C(=O)c2ccc(CC(=O)O)n2C)cc1 [Tolmetin], the “Minimum Anti-inflammatory Dosage” value [1, 23] is listed as 400 mg.

In the case of CC(=O)Oc1ccccc1C(=O)O [aspirin], the “niacin-associated flushing, warmth, itching and tingling, 80 mg aspirin” value ([2]; 80 mg aspirin 30 minutes prior to niacin, compared to placebo) is listed as “even more aggravated flushing, warmth, itching and tingling”, the “niacin-associated warmth, flushing, itching and tingling, 325 mg aspirin” value [2, 24] is listed as “decrease the warmth and flushing associated with niacin, but not the itching and tingling” and the “patients with flushing and warmth” value [2, 24] is listed as “at least 72 % of the patients”. The IC50 ([3]; THP-1, read-out: IC50, inhibition of niacin-stimulated release of PG from THP-1 cells) was ~380 nM and ~0.07 µg/mL, the “Rating of Flushing by Investigator: Mild” value [4] was 2 and the “Rating of Flushing by Investigator: Moderate” value [4] was 3. For the same molecule, the “Rating of Flushing by Investigator: None” value [4] was 8, the “Rating of Flushing by Investigator: Severe” value [4] was 1 and the “Rating of Flushing by Investigator: Very severe” value [4] was 0. The “release of PGF2 after aspirin pretreatment” value [5] was “approximately 10 % of baseline”, the “patients with complete inhibition of platelet aggregation” value [6, 25] was 288 patients and the “patients with partial inhibition of platelet aggregation” value [6, 25] was 78 patients. For the same molecule, the “patients with initial partial inhibition achieving complete inhibition” value ([6]; of 52 patients, dosage escalation or fluctuation of response) was 35, the “patients reverted to partial inhibition on further testing” value ([6]; of the 35) was 8 and the “patients converted from complete to partial inhibition” value ([6]; repeat testing, without change in aspirin dosage) was “about 33%”. The “inhibition of synthesis of PGs such as E2 and F2, concentrations” value (“inhibition of synthesis of PGs such” below) [7] was “high micromolar”, the “inhibition of nicotinic acid-induced flush (increase in ear temperature)” value [8] was “inhibited” and the subjective sensation ([9]; 40 mg aspirin 1 hour prior to 500 mg immediate release nicotinic acid, all three subjects) was “subjective sensation of cutaneous warmth”. The flushing ([9]; 40 mg aspirin 1 hour prior to single 500 mg immediate release nicotinic acid, all three subjects) was “severe flushing”, the “flushing after multi-day aspirin pretreatment” value ([9]; 40 mg aspirin each of four days, 500 mg nicotinic acid on fourth day 1 hour after aspirin, two of three subjects) was “virtually no flushing” and the “flushing after multi-day aspirin pretreatment, third subject” value ([9]; 40 mg aspirin each of four days, 500 mg nicotinic acid on fourth day, third subject) was “some flushing, but less than that encountered previously”. For the same molecule, the “reduction of cutaneous flush” value [10] was “significantly reduce cutaneous flush”, the “flushing, aspirin 1/2 hour before niacin, third subject” value ([11]; 325 mg aspirin 1/2 hour before 500 mg immediate release niacin, third subject) was “severe flushing” and the “flushing, aspirin 1/2 hour before niacin” value ([11]; 325 mg aspirin 1/2 hour before 500 mg immediate release niacin, two subjects) was “flushing, though slightly diminished”. For the same molecule, the “side effects from niacin versus sustained release aspirin predosing” value ([11]; 325 mg aspirin 1/2 hour before niacin, compared with SR aspirin for 6 hours, three subjects) was “significantly greater side effects”, the “flushing, bid aspirin pretreatment” value ([12]; 40 mg aspirin bid three days, fourth day 500 mg immediate release nicotinic acid with 40 mg aspirin, three subjects) was “None of the subjects experienced any appreciable flushing” and the “urinary excretion of PGD-M after multi-day aspirin” value ([13]; 40 mg aspirin each of four days, 500 mg nicotinic acid on fourth day (FIG. 2)) was “much lower”. The “Rating of Flushing by Subject: Mild” value [14] was 4, the “Rating of Flushing by Subject: Moderate” value [14] was 1 and the “Rating of Flushing by Subject: None” value [14] was 6. For the same molecule, the “Rating of Flushing by Subject: Severe” value [14] was 3, the “Rating of Flushing by Subject: Very severe” value [14] was 0 and the “Minimum Anti-inflammatory Dosage” value [1, 23] was 325 mg. For the same molecule, the AUCflux ([15]; aspirin 81 mg bid three days then 500 mg nicotinic acid + 81 mg aspirin vs placebo then niacin, p = 0.0001 (paired t test)) was 3022.5 + 2772, the Flushing duration ([15]; p = 0.002 (paired t test)) was 15.8 ± 16 min and the “Local T° change” value [16] was 0.61 ± 0.56 °C.

For O=C(O)c1ccccc1Nc1cccc(C(F)(F)F)c1 [flufenamic acid], the “inhibition of synthesis of PGs such” value [7] is listed as “high micromolar”.

For CC(C)Cc1ccc(C(C)C(=O)O)cc1 (stereo not shown) [ibuprofen], the “inhibition of synthesis of PGs such” value [7] is listed as “high micromolar”.

In the case of COc1ccc2c(c1)c(CC(=O)O)c(C)n2C(=O)c1ccc(Cl)cc1 [indomethacin], the IC50 ([3]; THP-1, read-out: IC50, PG production in THP-1 cells) is listed as about 1 nM, the “sensitivity of THP-1 cells relative to other cells” value ([3]; THP-1 versus other cells) is listed as “approximately 1000 times” and the “inhibition of synthesis of PGs such” value [7] is listed as “high micromolar”. The “inhibition of nicotinic acid-induced flush (increase in ear temperature)” value [8] was “inhibited”, the “inhibitory concentrations on PG production in other cell types” value [17] was “micromolar range” and the “Minimum Anti-inflammatory Dosage” value [1, 23] was 25 mg.

For COc1ccc2cc([C@H](C)C(=O)O)ccc2c1 [naproxen], the “inhibition of synthesis of PGs such” value [7] is listed as “high micromolar” and the “Minimum Anti-inflammatory Dosage” value [1, 23] is listed as 250 mg.

In the case of O=C(O)c1cccnc1 [niacin, nicotinic acid], the “level of prostaglandin F2 on repeated administration” value ([18]; after 6 days of continuous, twice daily administration) is listed as “decreases markedly”, the “concentration of prostaglandin F2 in blood coming from the skin” value ([18]; following administration of niacin) is listed as “dramatic rise” and the “in vitro release of PGs from THP-1” value ([3]; FIG. 4) is listed as “stimulate in vitro release of PGs”. For the same molecule, the “in vitro release of PGs from human circulating monocytes” value [19] was “stimulate in vitro release of PGs”, the “flushing, nicotinic acid without aspirin” value ([12]; single 500 mg dose without aspirin, all three subjects) was “severe flushing” and the “patients who cease taking nicotinic acid” value [20] was 30-40 % of patients. The “excretion of PGD-M in urine” value ([13]; 500 mg nicotinic acid 1 hour after single 40 mg aspirin, over 7 hours (FIG. 1)) was “significant amounts”, the “metabolites of PGD2 in urine” value [21] was “increased amounts” and the “metabolites of leukotriene in urine” value [21] was “increased amounts”. For the same molecule, the “metabolites of thromboxane in urine” value [21] was “increased amounts”, the “release of 9a, 11b-PGF2” value [22] was “increased the release” and the “release of thromboxane (TxB2)” value [22] was “did not release”.

In the case of CCCCC1C(=O)N(c2ccccc2)N(c2ccccc2)C1=O [phenylbutazone], the “inhibition of synthesis of PGs such” value [7] is listed as “high micromolar”.
